≈ marks a conversion by molar mass, not a printed value.
What was measured:
physchem = details: kinetic from dmso stock
Summary of the method: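 DMSO doubling dilutions were diluted twenty-fold into 100 mM citrate (pH 4), PBS (pH 7.4) or carbonate-bicarbonate (pH 9). After 24 h equilibration at room temperature, absorbance was read at 620 nm. The reported value is the highest concentration without measurable precipitate.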

[1] = tested on: Staphylococcus aureus (Isolate ID ATCC 29213); assay: Antibacterial activity, MIC, S. aureus; type: cell-based; details: Staphylococcus aureus, ATCC29213, Gram positive strain; broth microdilution or agar dilution
Summary of the method: (§1)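 Compounds are serially diluted in broth or agar as CLSI specifies for aerobically growing bacteria, and the MIC is then recorded for each strain.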

[2] = tested on: Enterococcus faecalis (Isolate ID ATCC 29212); assay: Antibacterial activity, MIC, E. faecalis; type: cell-based; details: Enterococcus faecalis, ATCC29212; Gram positive strain; broth microdilution or agar dilution
Method: Bacterial Assay: Determination of Antibacterial Activity
Compounds of the invention were tested for antimicrobial activity by susceptibility testing in liquid or on solid media. MICs for compounds against each strain were determined by the broth microdilution or agar dilution method according to the guidelines of the Clinical Laboratories and Standards Institute, formerly the National Committee for Clinical Laboratory Standards (Clinical Laboratories and Standards Institute. Methods for Dilution Antimicrobial Susceptibility Tests for Bacteria That Grow Aerobically; Approved Standard—Seventh Edition. Document M7-A7. CLSI, Wayne, Pa., 2006; Clinical Laboratories and Standards Institute. The gram positive bacterial strains tested include S. aureus (Staphylococcus aureus (Isolate ID ATCC 29213)), E. faecalis (Enterococcus faecalis (Isolate ID ATCC 29212)) and S. pyogenes (Streptococcus pyogenes (Isolate ID ATCC 51339)). The gram negative bacterial strains tested include H. influenzae (Haemophilus influenzae (Isolate ID ATCC 49247))

[3] = tested on: Streptococcus pyogenes (Isolate ID ATCC 51339); assay: Antibacterial activity, MIC, S. pyogenes; type: cell-based; details: Streptococcus pyogenes, ATCC51339, Gram positive strain; broth microdilution or agar dilution
Summary of the method: as §1

[4] = tested on: Haemophilus influenzae (Isolate ID ATCC 49247); assay: Antibacterial activity, MIC, H. influenzae; type: cell-based; details: Haemophilus influenzae, ATCC49247; Gram negative strain; broth microdilution or agar dilution
Summary of the method: as §1

[5] = pH 7.4, aqueous buffer, Solubility (pH 7.4)
[6] = pH 7.4, aqueous buffer, Solubility Range
[7] = pH 7.4, aqueous buffer, Max Solubility
[8] = pH 7.4, aqueous buffer, Solubility Range (maximum solubility)
[9] = pH 9, aqueous buffer, Max Solubility
[10] = pH 9, aqueous buffer, Solubility Range (maximum solubility)

SMILES | solubility at 24 h (physchem; [5]) [µg/mL] | solubility at 24 h (physchem; [6]) [µg/mL] | MIC [1] [µg/mL] | MIC [2] [µg/mL] | MIC [3] [µg/mL] | MIC [4] [µg/mL] | solubility at 24 h (physchem; [7]) [µg/mL] | solubility at 24 h (physchem; [8]) [µg/mL] | solubility at 24 h (physchem; [9]) [µg/mL] | solubility at 24 h (physchem; [10]) [µg/mL]
CCNC(=O)Nc1nc2cc(-c3cnc(N4CCC(C)(C(=O)O)CC4)nc3)cc(-c3cncs3)c2s1 [Compound 20] | ≥ 800 | > 800 | 0.25 to 1 (≈ 0.477 to 1.91 µM) | ≤ 0.25 | ≤ 0.25 | 1 to 16 (≈ 1.91 to 30.6 µM) | – | – | – | –
CCCCC#Cc1cc(-c2cnc(N3CCC(C)(C(=O)O)CC3)nc2)cc2nc(NC(=O)NCC)sc12 [Compound 22] | ≥ 800 | > 800 | 0.25 to 1 (≈ 0.48 to 1.92 µM) | ≤ 0.25 | 1 to 16 (≈ 1.92 to 30.7 µM) | > 16 | – | – | – | –
CCNC(=O)Nc1nc2cc(-c3cnc(N4CCC(C)(C(=O)O)CC4)nc3)cc(-c3csc(OC)n3)c2s1 [Compound 23, 1-[5-[2-(ethylcarbamoylamino)-7-(2-methoxythiazol-4-yl)-1,3-benzothiazol-5-yl]pyrimidin-2-yl]-4-methyl-piperidine-4-carboxylic acid] | ≥ 800 | > 800 | ≤ 0.25 | ≤ 0.25 | ≤ 0.25 | 1 to 16 (≈ 1.81 to 28.9 µM) | – | – | – | –
CCNC(=O)Nc1nc2cc(-c3cnc(N4CCC(C)(C(=O)O)CC4)nc3)cc(-c3cnn(C)c3)c2s1 [Compound 24] | ≥ 800 | > 800 | 1 to 16 (≈ 1.92 to 30.7 µM) | ≤ 0.25 | 0.25 to 1 (≈ 0.48 to 1.92 µM) | 1 to 16 (≈ 1.92 to 30.7 µM) | – | – | – | –
CCNC(=O)Nc1nc2cc(-c3cnc(N4CCC(C)(C(=O)O)CC4)nc3)cc(-c3cn[nH]c3)c2s1 [Compound 25] | ≥ 800 | > 800 | > 16 | 0.25 to 1 (≈ 0.493 to 1.97 µM) | 0.25 to 1 (≈ 0.493 to 1.97 µM) | > 16 | – | – | – | –
CCNC(=O)Nc1nc2cc(-c3cnc(N4CCC(C)(C(=O)O)CC4)nc3)cc(O)c2s1 [Compound 26, 1-[5-[2-(ethylcarbamoylamino)-7-hydroxy-1,3-benzothiazol-5-yl]pyrimidin-2-yl]-4-methyl-piperidine-4-carboxylic acid] | ≥ 800 | > 800 | > 16 | 1 to 16 (≈ 2.19 to 35 µM) | 1 to 16 (≈ 2.19 to 35 µM) | > 16 | – | – | – | –
CCNC(=O)Nc1nc2cc(-c3cnc(N4CCC(C)(C(=O)O)CC4)nc3)cc(-c3nc(CO)cs3)c2s1 [Compound 27] | ≥ 800 | > 800 | 1 to 16 (≈ 1.81 to 28.9 µM) | ≤ 0.25 | ≤ 0.25 | 1 to 16 (≈ 1.81 to 28.9 µM) | – | – | – | –
C#Cc1cc(-c2cnc(N3CCC(C)(C(=O)O)CC3)nc2)cc2nc(NC(=O)NCC)sc12 [Compound 28] | ≥ 800 | > 800 | 0.25 to 1 (≈ 0.538 to 2.15 µM) | ≤ 0.25 | 0.25 to 1 (≈ 0.538 to 2.15 µM) | 1 to 16 (≈ 2.15 to 34.4 µM) | – | – | – | –
CCNC(=O)Nc1nc2cc(-c3cnc(N4CCC(C)(C(=O)O)CC4)nc3)cc(-n3cccn3)c2s1 [Compound 29] | ≥ 800 | > 800 | 0.25 to 1 (≈ 0.493 to 1.97 µM) | ≤ 0.25 | 0.25 to 1 (≈ 0.493 to 1.97 µM) | 1 to 16 (≈ 1.97 to 31.6 µM) | – | – | – | –
CCNC(=O)Nc1nc2cc(-c3cnc(N4CCC(C)(C(=O)O)CC4)nc3)cc(-c3cccn3C)c2s1 [Compound 30] | ≥ 800 | > 800 | 0.25 to 1 (≈ 0.481 to 1.92 µM) | ≤ 0.25 | 0.25 to 1 (≈ 0.481 to 1.92 µM) | 1 to 16 (≈ 1.92 to 30.8 µM) | – | – | – | –
CCNC(=O)Nc1nc2cc(-c3cnc(N4CCC(C)(C(=O)O)CC4)nc3)cc(-c3ccc(C)cn3)c2s1 [Compound 31] | ≥ 800 | > 800 | ≤ 0.25 | ≤ 0.25 | ≤ 0.25 | 0.25 to 1 (≈ 0.47 to 1.88 µM) | ≥ 800 | > 800 | – | –
CCNC(=O)Nc1nc2cc(-c3cnc(N4CCC(C)(C(=O)O)CC4)nc3)cc(-c3cccc(C#N)n3)c2s1 [Compound 32] | 400 (≈ 737 µM) | 400 to 800 (≈ 737 to 1470 µM) | ≤ 0.25 | ≤ 0.25 | ≤ 0.25 | 1 to 16 (≈ 1.84 to 29.5 µM) | 400 (≈ 737 µM) | 400 to 800 (≈ 737 to 1470 µM) | – | –
CCNC(=O)Nc1nc2cc(-c3cnc(N4CCC(C)(C(=O)O)CC4)nc3)cc(-n3ccnc3)c2s1 [Compound 33] | 200 (≈ 395 µM) | 12.5 to 400 (≈ 24.7 to 790 µM) | > 16 | 1 to 16 (≈ 1.97 to 31.6 µM) | 1 to 16 (≈ 1.97 to 31.6 µM) | > 16 | – | – | ≥ 800 | > 800
CCNC(=O)Nc1nc2cc(-c3cnc(N4CCC(C)(C(=O)O)CC4)nc3)cc(-c3ncc(F)cn3)c2s1 [Compound 34] | 50 (≈ 93.2 µM) | 12.5 to 400 (≈ 23.3 to 745 µM) | ≤ 0.25 | ≤ 0.25 | ≤ 0.25 | 1 to 16 (≈ 1.86 to 29.8 µM) | – | – | 100 (≈ 186 µM) | 12.5 to 400 (≈ 23.3 to 745 µM)
CCNC(=O)Nc1nc2cc(-c3cnc(N4CCC(C)(C(=O)O)CC4)c(F)c3)cc(-c3ccccn3)c2s1 [Compound 36] | 50 (≈ 93.5 µM) | 12.5 to 400 (≈ 23.4 to 748 µM) | ≤ 0.25 | ≤ 0.25 | ≤ 0.25 | 1 to 16 (≈ 1.87 to 29.9 µM) | – | – | 400 (≈ 748 µM) | 400 to 800 (≈ 748 to 1500 µM)
CCNC(=O)Nc1nc2cc(-c3cnc(N4CCC(C)(C(=O)O)CC4)nc3)cc(C)c2s1 [Compound 38, 1-{5-[2-(3-Ethyl-ureido)-7-methyl-benzothiazol-5-yl]-pyrimidin-2-yl}-4-methyl-piperidine-4-carboxylic acid] | ≥ 800 | > 800 | 0.25 to 1 (≈ 0.55 to 2.2 µM) | ≤ 0.25 | 0.25 to 1 (≈ 0.55 to 2.2 µM) | > 16 | ≥ 800 | > 800 | – | –
CCNC(=O)Nc1nc2cc(-c3cnc(N4CCC(C)(C(=O)O)CC4)cn3)cc(-c3ccccn3)c2s1 [Compound 40] | ≥ 800 | > 800 | 0.25 to 1 (≈ 0.483 to 1.93 µM) | ≤ 0.25 | ≤ 0.25 | 1 to 16 (≈ 1.93 to 30.9 µM) | ≥ 800 | > 800 | – | –
CCNC(=O)Nc1nc2cc(-c3cnc(N4CCC(C)(C(=O)O)CC4)nc3)cc(-c3cn(-c4ccccc4)nn3)c2s1 [Compound 41, 1-[5-[2-(ethylcarbamoylamino)-7-(1-phenyltriazol-4-yl)-1,3-benzothiazol-5-yl]pyrimidin-2-yl]-4-methyl-piperidine-4-carboxylic acid] | ≥ 800 | > 800 | ≤ 0.25 | ≤ 0.25 | ≤ 0.25 | 1 to 16 (≈ 1.71 to 27.4 µM) | ≥ 800 | > 800 | – | –
CCNC(=O)Nc1nc2cc(-c3cnc(N4CCC(C)(C(=O)O)CC4)nc3)cc(-c3ccnc(OC)n3)c2s1 [Compound 42] | 25 (≈ 45.6 µM) | 12.5 to 400 (≈ 22.8 to 729 µM) | 0.25 to 1 (≈ 0.456 to 1.82 µM) | ≤ 0.25 | ≤ 0.25 | 1 to 16 (≈ 1.82 to 29.2 µM) | – | – | 100 (≈ 182 µM) | 12.5 to 400 (≈ 22.8 to 729 µM)
